Results: patent US20260345594A1, “Methods and Compositions for Controlling Jet Lag, Chronotype, or Circadian Rhythm” (University of Pittsburgh - Of the Commonwealth System of …, priority 2022, published 2026)

Legend:
Melanopsin = biological target: T1, Melanopsin (Homo sapiens, UniProt Q9UHM6); assay: Melanopsin (OPN4) Presto-Tango luciferase screen; assay type: cell-based; settings: HTLA cells, LED light, agonist alone, read-out: EC50 of receptor activation by the ligand
T1 construct: V2 tail; expressed in transfected cells; host or cells: HTLA cells (HEK293 cell line with tTA-dependent luciferase reporter and β-arrestin2-TEV fusion)
T1 sequence (Q9UHM6 1-478): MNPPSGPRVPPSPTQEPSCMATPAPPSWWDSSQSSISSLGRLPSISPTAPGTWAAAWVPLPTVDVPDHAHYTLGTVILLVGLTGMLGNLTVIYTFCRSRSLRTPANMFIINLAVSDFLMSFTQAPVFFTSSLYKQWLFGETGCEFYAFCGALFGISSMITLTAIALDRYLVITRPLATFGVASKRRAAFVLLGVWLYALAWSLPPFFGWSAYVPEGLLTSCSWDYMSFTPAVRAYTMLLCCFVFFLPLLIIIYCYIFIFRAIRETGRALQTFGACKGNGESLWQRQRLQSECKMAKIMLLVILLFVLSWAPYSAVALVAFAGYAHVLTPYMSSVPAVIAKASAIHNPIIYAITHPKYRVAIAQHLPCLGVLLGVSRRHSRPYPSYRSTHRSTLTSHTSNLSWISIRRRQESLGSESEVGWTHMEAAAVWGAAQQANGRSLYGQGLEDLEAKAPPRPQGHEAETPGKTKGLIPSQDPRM
Text: (§1) Presto-Tango Assay: Empty Tango plasmid was generated from Addgene plasmid #66225. Melanopsin was amplified by pcr from pAAV-GFAP104-melanopsin-mCherry (Addgene plasmid #122630) and AVPR1a from hV1aR-GFP (Addgene plasmid #67846) and cloned to generate OPN4- and AVPR1a-Tango plasmid. HTLA cells (a HEK293 cell line stably expressing a tTA-dependent luciferase reporter and a β-arrestin2-TEV fusion gene—a gift from Bryan Roth) was transfected with OPN4-Tango or AVPR1A-Tango plasmids. The HTLA Cells are grown in DMEM supplemented with 10% FBS, 100 U/ml penicillin and 100 μg/ml streptomycin, 2 μg/ml puromycin and 100 μg/ml hygromycin B (HTLA medium) in a humidified atmosphere at 37 °C in 5% CO2 (HTLA Medium).
(§2) Luciferase activity was measured using Bright-Glo Luciferase (Promega #E2160) assay.
(§3) Day 1: HTLA cells were plated in at 9 to 10×10^6 cells per 100 mm cell culture dish in HTLA Medium.
(§4) Day 2: The cells were transfected using the Polyethylenimine method. […]
(§5) Day 5: The medium containing drug solutions were removed from the wells (by aspiration or shaking), and 50 μL per well of Bright-Glo solution (Promega) diluted 10-fold in filter-sterilized assay buffer, which consisted of 20 mM HEPES and 1×HBSS at pH 7.4 and 1 mM Glucose were added to each well. After incubation for 15 to 20 minutes at room temperature, luminescence was counted in a BioTek-Flx-800 luminescence counter.

[1] = biological target: T2, AVPR1a (human vasopressin 1a receptor, V1AR) (Homo sapiens, UniProt P37288); assay: AVPR1a Presto-Tango luciferase screen; assay type: cell-based
T2 construct: V2 tail; expressed in transfected cells; host or cells: HTLA cells (HEK293 cell line with tTA-dependent luciferase reporter and β-arrestin2-TEV fusion)
T2 sequence (P37288 whole entry, the tested form may be a part): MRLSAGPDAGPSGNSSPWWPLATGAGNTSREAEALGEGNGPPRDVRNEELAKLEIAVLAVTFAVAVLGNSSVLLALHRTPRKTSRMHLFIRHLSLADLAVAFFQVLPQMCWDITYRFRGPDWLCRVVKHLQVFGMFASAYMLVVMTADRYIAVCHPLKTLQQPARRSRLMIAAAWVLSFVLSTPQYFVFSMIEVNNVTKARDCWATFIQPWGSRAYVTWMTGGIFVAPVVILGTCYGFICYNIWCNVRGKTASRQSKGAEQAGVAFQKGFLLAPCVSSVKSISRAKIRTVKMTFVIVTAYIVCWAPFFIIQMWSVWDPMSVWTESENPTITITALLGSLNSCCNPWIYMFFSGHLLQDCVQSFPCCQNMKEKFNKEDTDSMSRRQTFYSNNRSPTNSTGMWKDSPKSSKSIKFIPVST
Text: as §1, §2, §3, §4, §5

SMILES	EC50 (Melanopsin)	IC50 ([1]; 5 nM Arginine Vasopressin, 16 hrs illumination (FIG. 9), inhibitor, read-out: EC50 (allosteric inhibition of AVPR1a, ratio of luciferase activity over positive control))	V1AR inhibition validated by in vitro experiments ([1]; in words)
CC1=C(/C=C/C(C)=C\C=C\C(C)=C\C=O)C(C)(C)CCC1 [9-cis-Retinol]	~250 nM		
Cc1ccc2[nH]cc(CCNC(=O)Cn3c(=O)c(=O)n(Cc4ccccc4)c4ccccc43)c2c1 [MolPort-007-880-661]		360 nM	effective V1AR inhibitors
